For 21 compounds, GI50 results are on record in US20260109707A1, “HETEROBIFUNCTIONAL COMPOUNDS AND METHODS OF TREATING DISEASE” (Halda Therapeutics OpCo. Inc., priority 2022, published 2026).

In test [1] the test system is VCaP cells. The test is described as follows: Cellular growth inhibition assay for VCaP cells (CellTiter-Glo, 72 hours). In kind it is cell-based, human. Particulars: Homo sapiens, VCaP, 72 h. The procedure, abridged:
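Luminescent viability signal after 72 h of compound exposure gave GI50 values by four-parameter nonlinear regression. Compounds were added in 0.5% DMSO to cells plated 24 h earlier at 5000/well in DMEM containing 10% FBS.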

Test [2] concerns T47D cells. Kind of test: Cellular growth inhibition assay for T47D cells (CellTiter-Glo, 72 hours). The test is classed as cell-based, human. Particulars: 72 hours treatment. How it is done:
T47D cells were purchased from American Type Cell Culture (ATCC Cat #HTB-133) and then seeded on poly-D-lysine coated, black clear-bottom 384-well plates at 3000/well in 25 μL Dulbecco's Modified Eagle Medium (DMEM) supplemented with 10% w/w Fetal bovine serum (FBS), 0.2 units/mL recombinant human insulin (Gibco Cat #12585014), and 1% w/w Pen-Strep. Pen-Strep is a commercially available mixture of penicillin G and streptomycin, which is used in mammalian cell culture media to prevent bacterial contamination. Dulbecco's Modified Eagle Medium (DMEM) supplemented with 10% w/w fetal bovine serum (FBS), 0.2 units/mL recombinant human insulin, and 1% w/w Pen-Strep is herein referred to as Treatment Medium. Following seeding of cells in the plates, the plates were spun at 300×g for 30 seconds, then equilibrated to room temperature for 30 minutes, and then deposited in a humidified tissue culture incubator maintained at 37° C. with 5% CO2.
At 24 hours after seeding of the cells, dilutions of test compound were prepared in DMSO and dissolved in Treatment Medium, to achieve a final DMSO concentration of 0.5% w/w, thereby providing the Test Compound Solution. A 25 μL aliquot of the Test Compound Solution was added to cells in the well plates. An equal volume of a solution containing DMSO and Treatment Medium was used as a negative control. Following treatment of cells with Test Compound Solution or said equal volume of a solution containing DMSO and Treatment Medium, the plates were spun at 300×g for 30 seconds, and then left in an incubator for 72 hours.
At the end of the treatment duration, cell viability was quantified with CellTiter-Glo 2.0 reagent (Promega Cat #G9243). For this purpose, plates were equilibrated to room temperature for 30 minutes, and then 25 μL of CellTiter-Glo 2.0 reagent was added to cells in the plate wells. Plates were then agitated on a shaker for two minutes at 500 rpm and subsequently incubated at room temperature for 10 minutes. Following incubation, the plates were spun at 3000×g for 30 seconds, then sealed with an optical adhesive cover, and luminescence readings were measured with an EnVision Plate Reader (Perkin Elmer).
Data was normalized using zero luminescence for baseline. A four-parameter non-linear regression curve fit was applied to dose-response data in GraphPad Prism data analysis software to determine the half-maximal growth inhibitory concentration (GI50) for each test compound.

The test system of test [3] is T-Rex 293 cell line SC3 cells lacking increased expression of androgen receptor protein. Kind of test: Cellular growth inhibition assay, T-Rex 293 SC3 cells without doxycycline (CellTiter-Glo, 72 hours). In kind it is cell-based. Particulars: T-Rex 293 cell line SC3 cells not exposed to doxycycline (lacking increased androgen receptor expression). The method, boiled down:
(§1)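 Doxycycline (10 ng/mL) was either included or omitted to toggle wild-type androgen receptor expression in SC3 cells, a T-Rex 293 clone, grown in stripped-serum, phenol red-free medium. After 72 hours with compound, viable cells were quantified by CellTiter-Glo 2.0.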

Test [4] concerns T-Rex 293 cell line SC3 cells having increased expression of androgen receptor protein due to exposure to doxycycline. Kind of test: Cellular growth inhibition assay, T-Rex 293 SC3 cells with doxycycline (CellTiter-Glo, 72 hours). The test is classed as cell-based. Particulars: 72 h, T-Rex 293 SC3 cells with increased androgen receptor expression due to doxycycline (10 ng/mL). The procedure, abridged: as §1

`CCNC(=O)C[C@@H]1N=C(c2ccc(N(C)CCC3CCN(c4ccc(C(=O)N[C@H]5CC[C@H](Oc6ccc(C#N)c(Cl)c6)CC5)nn4)CC3)cc2)c2c(sc(C)c2C)-n2c(C)nnc21` [I-34]: the GI50 in test [1] was 500 to 1500 nM; in test [2] (Homo sapiens, T47D, 72 h), 500 to 1500 nM; in test [3] (72 h) it was 500 to 1500 nM; in test [4], below 500 nM.
Take `CCNC(=O)C[C@@H]1N=C(c2ccc(N(C)CCN3CCN(c4ccc(C(=O)N[C@H]5CC[C@H](Oc6ccc(C#N)c(Cl)c6)CC5)nn4)CC3)cc2)c2c(sc(C)c2C)-n2c(C)nnc21` [I-35]: the 50% growth inhibitory concentration (GI50) in test [1] was below 500 nM; in test [2] (Homo sapiens, T47D, 72 h), 500 to 1500 nM; in test [3] (72 h) it was 500 to 1500 nM; in test [4] it was below 500 nM.
For `CCNC(=O)C[C@@H]1N=C(c2ccc(N3CCC(CN4CCN(c5ccc(C(=O)N[C@H]6CC[C@H](Oc7ccc(C#N)c(Cl)c7)CC6)nn5)CC4)CC3)cc2)c2c(sc(C)c2C)-n2c(C)nnc21` [I-36], the GI50 in test [1] was below 500 nM; in test [2] (Homo sapiens, T47D, 72 h), 500 to 1500 nM; in test [3] (72 h), 500 to 1500 nM; in test [4] it was below 500 nM.
Turning to `CCNC(=O)C[C@@H]1N=C(c2ccc(OC3CC(OC4CCN(c5ccc(C(=O)N[C@H]6CC[C@H](Oc7ccc(C#N)c(Cl)c7)CC6)nn5)CC4)C3)cc2)c2c(sc(C)c2C)-n2c(C)nnc21` (stereo partly drawn) [I-37], the GI50 in test [1] is below 500 nM; in test [2] (Homo sapiens, T47D, 72 h), below 500 nM; in test [3] (72 h) it was below 500 nM; in test [4], below 500 nM.
Regarding `CCNC(=O)C[C@@H]1N=C(c2ccc(CN3CCN(c4ccc(C(=O)N[C@H]5CC[C@H](Oc6ccc(C#N)c(Cl)c6)CC5)nn4)CC3)cc2)c2c(sc(C)c2C)-n2c(C)nnc21` [I-38], the GI50 in test [1] is below 500 nM; in test [2] (Homo sapiens, T47D, 72 h) it was 500 to 1500 nM; in test [3] (72 h) it was 500 to 1500 nM; in test [4], below 500 nM.
As for `CCNC(=O)C[C@@H]1N=C(c2ccc(N3CC(N4CCN(c5ccc(C(=O)N[C@H]6CC[C@H](Oc7ccc(C#N)c(Cl)c7)CC6)nn5)CC4)C3)cc2)c2c(sc(C)c2C)-n2c(C)nnc21` [I-40], the GI50 in test [1] is below 500 nM; in test [2] (Homo sapiens, T47D, 72 h) it was 500 to 1500 nM; in test [3] (72 h), 500 to 1500 nM; in test [4], below 500 nM.
Regarding `CCNC(=O)C[C@@H]1N=C(c2ccc(N3CCN(C4CN(c5ccc(C(=O)N[C@H]6CC[C@H](Oc7ccc(C#N)c(Cl)c7)CC6)nn5)C4)CC3)cc2)c2c(sc(C)c2C)-n2c(C)nnc21` [I-41], the GI50 is below 500 nM in test [1]; below 500 nM in test [2] (Homo sapiens, T47D, 72 h); 500 to 1500 nM in test [3] (72 h); below 500 nM in test [4].
With `CCNC(=O)C[C@@H]1N=C(c2ccc(N3CCC(N(C)C4CCN(c5ccc(C(=O)N[C@H]6CC[C@H](Oc7ccc(C#N)c(Cl)c7)CC6)nn5)CC4)CC3)cc2)c2c(sc(C)c2C)-n2c(C)nnc21` [I-43], the GI50 is below 500 nM in test [1]; 500 to 1500 nM in test [2] (Homo sapiens, T47D, 72 h); 1500 to 3000 nM in test [3] (72 h); below 500 nM in test [4].
Consider `CCNC(=O)C[C@@H]1N=C(c2ccc(OC3CN(c4ccc(C(=O)N[C@H]5CC[C@H](Oc6ccc(C#N)c(Cl)c6)CC5)nn4)C3)cc2)c2c(sc(C)c2C)-n2c(C)nnc21` [I-47], for which the GI50 is 500 to 1500 nM in test [1]; 500 to 1500 nM in test [2] (Homo sapiens, T47D, 72 h); 500 to 1500 nM in test [3] (72 h); below 500 nM in test [4].
Consider `CCNC(=O)C[C@@H]1N=C(c2ccc(OCCN(C)c3ccc(C(=O)N[C@H]4CC[C@H](Oc5ccc(C#N)c(Cl)c5)CC4)nn3)cc2)c2c(sc(C)c2C)-n2c(C)nnc21` [I-49], for which the GI50 in test [1] is below 500 nM; in test [2] (Homo sapiens, T47D, 72 h), 500 to 1500 nM; in test [3] (72 h) it was 500 to 1500 nM; in test [4], below 500 nM.
With `Cc1sc2c(c1C)C(c1ccc(CCC3CCN(c4ccc(C(=O)NC5CCC(Oc6ccc(C#N)c(Cl)c6)CC5)nn4)CC3)cc1)=N[C@@H](Cc1ncco1)c1nnc(C)n1-2` (stereo partly drawn) [I-74, N-[4-(3-chloro-4-cyano-phenoxy)cyclohexyl]-6-[4-[2-[4-[(9S)-4,5,13-trimethyl-9-(oxazol-2-ylmethyl)-3-thia-1,8,11,12-tetrazatricyclo[8.3.0.02,6]trideca-2(6),4,7,10,12-pentaen-7-yl]phenyl]ethyl]-1-piperidyl]pyridazine-3-carboxamide], the GI50 in test [1] is below 500 nM; in test [2] (Homo sapiens, T47D, 72 h), below 500 nM; in test [3] (72 h), below 500 nM; in test [4] it was below 500 nM.
Regarding `Cc1sc2c(c1C)C(c1ccc(CCCC3CCN(c4ccc(C(=O)N[C@H]5CC[C@H](Oc6ccc(C#N)c(Cl)c6)CC5)nn4)CC3)cc1)=NC(Cc1ncco1)c1nnc(C)n1-2` (stereo partly drawn) [I-75], the GI50 in test [1] is below 500 nM; in test [2] (Homo sapiens, T47D, 72 h), below 500 nM; in test [3] (72 h), below 500 nM; in test [4], below 500 nM.
For `Cc1sc2c(c1C)C(c1ccc(OC3CC4(CCN(c5ccc(C(=O)N[C@H]6CC[C@H](Oc7ccc(C#N)c(Cl)c7)CC6)nn5)CC4)C3)cc1)=NC(Cc1ncco1)c1nnc(C)n1-2` (stereo partly drawn) [I-77], the GI50 in test [1] is below 500 nM; in test [2] (Homo sapiens, T47D, 72 h), 1500 to 3000 nM; in test [3] (72 h) it was 500 to 1500 nM; in test [4], below 500 nM.
For `Cc1sc2c(c1C)C(c1ccc(OCCC3CCN(c4ccc(C(=O)N[C@H]5CC[C@H](Oc6ccc(C#N)c(Cl)c6)CC5)nn4)CC3)cc1)=NC(Cc1ncco1)c1nnc(C)n1-2` (stereo partly drawn) [I-78], the GI50 in test [1] was below 500 nM; in test [2] (Homo sapiens, T47D, 72 h) it was below 500 nM; in test [3] (72 h), below 500 nM; in test [4], below 500 nM.
On to `Cc1sc2c(c1C)C(c1ccc(OC3CC4(CCN(c5ccc(C(=O)N[C@H]6CC[C@H](Oc7ccc(C#N)c(Cl)c7)CC6)nn5)CC4)C3)cc1)=N[C@@H](Cc1ncco1)c1nnc(C)n1-2` [I-79], for which the GI50 in test [1] is below 500 nM; in test [2] (Homo sapiens, T47D, 72 h), below 500 nM; in test [3] (72 h), below 500 nM; in test [4] it was below 500 nM.
`Cc1sc2c(c1C)C(c1ccc(OC3CC4(CCN(c5ccc(C(=O)N[C@H]6CC[C@H](Oc7ccc(C#N)c(Cl)c7)CC6)nn5)CC4)C3)cc1)=N[C@H](Cc1ncco1)c1nnc(C)n1-2` [I-80]: the GI50 in test [1] is below 500 nM; in test [2] (Homo sapiens, T47D, 72 h), above 3000 nM; in test [3] (72 h) it was above 3000 nM; in test [4], below 500 nM.
With `Cc1sc2c(c1C)C(c1ccc(OC3CN(CC4CCN(c5ccc(C(=O)N[C@H]6CC[C@H](Oc7ccc(C#N)c(Cl)c7)CC6)nn5)CC4)C3)cc1)=N[C@@H](Cc1ncco1)c1nnc(C)n1-2` [I-81], the concentration for 50% growth inhibition (GI50) is below 500 nM in test [1], above 3000 nM in test [2], above 3000 nM in test [3] and below 500 nM in test [4].
In the case of `Cc1sc2c(c1C)C(c1ccc(OC3CN(CC4CCN(c5ccc(C(=O)N[C@H]6CC[C@H](Oc7ccc(C#N)c(Cl)c7)CC6)nn5)CC4)C3)cc1)=N[C@H](Cc1ncco1)c1nnc(C)n1-2` [I-82], the GI50 in test [1] was below 500 nM; in test [2] (Homo sapiens, T47D, 72 h), below 500 nM; in test [3] (72 h), below 500 nM; in test [4] it was below 500 nM.
For `Cc1sc2c(c1C)C(c1ccc(OC3CC4(CCN(c5ccc(C(=O)N[C@H]6CC[C@H](Oc7ccc(C#N)c(Cl)c7)CC6)nn5)CC4)C3)cc1)=N[C@@H](CC#N)c1nnc(C)n1-2` [I-83], the GI50 in test [1] is below 500 nM; in test [2] (Homo sapiens, T47D, 72 h), below 500 nM; in test [3] (72 h) it was above 3000 nM; in test [4], below 500 nM.
Regarding `Cc1sc2c(c1C)C(c1ccc(OC3CC4(CCN(c5ncc(C(=O)N[C@H]6CC[C@H](Oc7ccc(C#N)c(Cl)c7)CC6)cn5)CC4)C3)cc1)=N[C@@H](Cc1ncco1)c1nnc(C)n1-2` [I-84], the GI50 in test [1] was below 500 nM; in test [2] (Homo sapiens, T47D, 72 h), below 500 nM; in test [3] (72 h), below 500 nM; in test [4] it was below 500 nM.
As to `Cc1sc2c(c1C)C(c1ccc(OC3CCC4(C3)CN(c3ccc(C(=O)N[C@H]5CC[C@H](Oc6ccc(C#N)c(Cl)c6)CC5)nn3)C4)cc1)=N[C@@H](Cc1ncco1)c1nnc(C)n1-2` (stereo partly drawn) [I-85], the GI50 in test [1] was below 500 nM; in test [2] (Homo sapiens, T47D, 72 h) it was below 500 nM; in test [3] (72 h), below 500 nM; in test [4], below 500 nM.
